Measured values as given in PubChem BioAssay (NCI).
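These data come from cells grown in 96-well plates and exposed to compound for 48 hours at five concentrations. At the TGI there is no net growth.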

What was measured:
Test in all cases: NCI anticancer screen, dose series, 48 h
[1] = tested on: SW-620 colon
[2] = tested on: SK-MEL-5 melanoma
[3] = tested on: CAKI-1 renal
[4] = tested on: NCI-H460 lung
[5] = tested on: MOLT-4 leukemia
[6] = tested on: UACC-257 melanoma
[7] = tested on: COLO 205 colon
[8] = tested on: OVCAR-3 ovarian
[9] = tested on: DLD-1 colon
[10] = tested on: HL-60(TB) leukemia
[11] = tested on: MALME-3M melanoma
[12] = tested on: TK-10 renal
[13] = tested on: HT29 colon
[14] = tested on: RXF 393 renal
[15] = tested on: HCT-15 colon
[16] = tested on: IGROV1 ovarian
[17] = tested on: DMS 273 small cell lung
[18] = tested on: OVCAR-4 ovarian
[19] = tested on: OVCAR-8 ovarian
[20] = tested on: HCT-116 colon
[21] = tested on: K-562 leukemia
[22] = tested on: OVCAR-5 ovarian
[23] = tested on: RXF-631 renal
[24] = tested on: SF-539 CNS
[25] = tested on: SF-268 CNS
[26] = tested on: HOP-62 NSCLC
[27] = tested on: UACC-62 melanoma
[28] = tested on: RPMI-8226 leukemia
[29] = tested on: DMS 114 small cell lung
[30] = tested on: SK-MEL-2 melanoma
[31] = tested on: HOP-92 NSCLC
[32] = tested on: CCRF-CEM leukemia
[33] = tested on: SNB-78 CNS
[34] = tested on: XF 498 CNS
[35] = tested on: 786-0 renal
[36] = tested on: SK-OV-3 ovarian
[37] = tested on: HOP-18 NSCLC
[38] = tested on: M19-MEL melanoma
[39] = tested on: A498 renal
[40] = tested on: EKVX NSCLC
[41] = tested on: LOX IMVI melanoma
[42] = tested on: A549 NSCLC
[43] = tested on: SNB-75 CNS
[44] = tested on: KM12 colon
[45] = tested on: U251 CNS
[46] = tested on: KM20L2 colon
[47] = tested on: SN12C renal
[48] = tested on: SK-MEL-28 melanoma
[49] = tested on: SF-295 CNS
[50] = tested on: HCC-2998 colon
[51] = tested on: ACHN renal
[52] = tested on: UO-31 renal
[53] = tested on: SNB-19 CNS
[54] = tested on: LXFL 529 NSCLC
[55] = tested on: M14 melanoma
[56] = tested on: NCI-H23 lung
[57] = tested on: NCI-H522 lung

CC1=C(C(=O)CC(=O)C(=O)Nc2ccc(Cl)cc2C)Sc2ccccc2N1
TGI [1]: > 100 µM
TGI [2]: > 100 µM
TGI [3]: > 100 µM
TGI [4]: > 100 µM
TGI [5]: > 77.1 µM
TGI [6]: > 100 µM
TGI [7]: > 100 µM
TGI [8]: > 100 µM
TGI [9]: > 100 µM
TGI [10]: > 100 µM
TGI [11]: > 100 µM
TGI [12]: > 100 µM
TGI [13]: > 100 µM
TGI [14]: > 100 µM
TGI [15]: > 100 µM
TGI [16]: > 100 µM
TGI [17]: > 100 µM
TGI [18]: > 100 µM
TGI [19]: > 100 µM
TGI [20]: > 100 µM
TGI [21]: > 100 µM
TGI [22]: > 100 µM
TGI [23]: > 100 µM
TGI [24]: > 100 µM
TGI [25]: > 100 µM
TGI [26]: > 100 µM
TGI [27]: > 100 µM
TGI [28]: > 100 µM
TGI [29]: > 100 µM
TGI [30]: > 100 µM
TGI [31]: 74.7 µM
TGI [32]: > 100 µM
TGI [33]: > 100 µM
TGI [34]: > 100 µM
TGI [35]: > 100 µM
TGI [36]: > 100 µM
TGI [37]: > 100 µM
TGI [38]: > 100 µM
TGI [39]: > 100 µM
TGI [40]: > 100 µM
TGI [41]: > 100 µM
TGI [42]: > 100 µM
TGI [43]: > 100 µM
TGI [44]: > 100 µM
TGI [45]: > 100 µM
TGI [46]: > 100 µM
TGI [47]: > 100 µM
TGI [48]: > 100 µM
TGI [49]: > 100 µM
TGI [50]: > 100 µM
TGI [51]: > 100 µM
TGI [52]: > 100 µM
TGI [53]: > 100 µM
TGI [54]: > 100 µM
TGI [55]: > 100 µM
TGI [56]: > 100 µM
TGI [57]: > 100 µM
